Assays:
Assay type in all cases: binding, human
[1] = target: TRAV12-1 TCR NR1C; conditions: pH 7.5
[2] = target: TRAV12-2 TCR NR2F; conditions: pH 7.5
[3] = target: TRAV12-1 TCR NR1A; conditions: pH 7.5
[4] = target: TRAV12-1 TCR NR1D; conditions: pH 7.5
[5] = system: TRAV12^+ TCRs

Sequence	KD, NR1C [1]	KD, NR2F [2]	KD, NR1A [3]	KD, NR1D [4]	TCR binding to HLA-A2 presenting the changed epitope [5]
TLDPRSFLL [PAR1]	N.B.	N.B.			
YLQPSTFLL [S^269–277R273S]	N.B.	N.B.	N.B.	N.B.	completely abrogated TCR binding

Source: article PMC8352664 (The Journal of Biological Chemistry, 2021)
